ChEMBL document CHEMBL3351986, “Probing linker design in citric acid-ciprofloxacin conjugates” (2014)
In brackets after ≈: the same amount, converted by molar mass. Activity calls are given as the source filed them. The rule behind the calls is not given here.

Tested on: Staphylococcus epidermidis
Assay: Ratio of compound MIC to ciprofloxacin MIC for Staphylococcus epidermidis NCTC 2749 after 18 hrs by micro dilution method
Type: functional
Details: not given

SMILES	Ratio
O=C(O)CC(O)(CC(=O)NCCCCC(=O)N1CCN(c2cc3c(cc2F)c(=O)c(C(=O)O)cn3C2CC2)CC1)C(=O)O (racemic)	70

Tested on: Escherichia coli
Assay: Ratio of compound MIC to ciprofloxacin MIC for Escherichia coli NCTC 10418 after 18 hrs by micro dilution method
Type: functional
Details: not given

SMILES	Ratio
O=C(O)CC(O)(CC(=O)NCCCCC(=O)N1CCN(c2cc3c(cc2F)c(=O)c(C(=O)O)cn3C2CC2)CC1)C(=O)O (racemic)	8.8

Tested on: Pseudomonas aeruginosa
Assay: Ratio of compound MIC to ciprofloxacin MIC for Pseudomonas aeruginosa environmental isolate after 18 hrs by micro dilution method
Type: functional
Details: not given

SMILES	Ratio
O=C(O)CC(O)(CC(=O)NCCCCC(=O)N1CCN(c2cc3c(cc2F)c(=O)c(C(=O)O)cn3C2CC2)CC1)C(=O)O (racemic)	35

Tested on: Pseudomonas aeruginosa
Assay: Ratio of compound MIC to ciprofloxacin MIC for Pseudomonas aeruginosa NCTC 10662 after 18 hrs by micro dilution method
Type: functional
Details: not given

SMILES	Ratio
O=C(O)CC(O)(CC(=O)NCCCCC(=O)N1CCN(c2cc3c(cc2F)c(=O)c(C(=O)O)cn3C2CC2)CC1)C(=O)O (racemic)	35

Tested on: Pseudomonas aeruginosa
Assay: Ratio of compound MIC to ciprofloxacin MIC for Pseudomonas aeruginosa BIG 63 after 18 hrs by micro dilution method
Type: functional
Details: not given

SMILES	Ratio
O=C(O)CC(O)(CC(=O)NCCCCC(=O)N1CCN(c2cc3c(cc2F)c(=O)c(C(=O)O)cn3C2CC2)CC1)C(=O)O (racemic)	35

Tested on: Serratia marcescens
Assay: Ratio of compound MIC to ciprofloxacin MIC for Serratia marcescens BIG 11 NCTC 1377 after 18 hrs by micro dilution method
Type: functional
Details: not given

SMILES	Ratio
O=C(O)CC(O)(CC(=O)NCCCCC(=O)N1CCN(c2cc3c(cc2F)c(=O)c(C(=O)O)cn3C2CC2)CC1)C(=O)O (racemic)	36.5

Tested on: Burkholderia cepacia
Assay: Ratio of compound MIC to ciprofloxacin MIC for Burkholderia cepacia BIG 9 NCTC 10744 after 18 hrs by micro dilution method
Type: functional
Details: not given

SMILES	Ratio
O=C(O)CC(O)(CC(=O)NCCCCC(=O)N1CCN(c2cc3c(cc2F)c(=O)c(C(=O)O)cn3C2CC2)CC1)C(=O)O (racemic)	35

Tested on: Staphylococcus aureus
Assay: Antimicrobial activity against Staphylococcus aureus NCTC 13142 after 18 hrs by micro dilution method
Type: functional
Details: NCTC 13142, 18 h

SMILES	MIC
O=C(O)CC(O)(CC(=O)NCCCCC(=O)N1CCN(c2cc3c(cc2F)c(=O)c(C(=O)O)cn3C2CC2)CC1)C(=O)O (racemic)	> 36 µg/mL

Tested on: Staphylococcus aureus
Assay: Antimicrobial activity against Staphylococcus aureus HG-1 after 18 hrs by micro dilution method
Type: functional
Details: HG-1, 18 h

SMILES	MIC
O=C(O)CC(O)(CC(=O)NCCCCC(=O)N1CCN(c2cc3c(cc2F)c(=O)c(C(=O)O)cn3C2CC2)CC1)C(=O)O (racemic)	> 36 µg/mL

Tested on: Staphylococcus aureus
Assay: Antimicrobial activity against Staphylococcus aureus (Oxford) NCTC 6571 after 18 hrs by micro dilution method
Type: functional
Details: (Oxford) NCTC 6571, 18 h

SMILES	MIC
O=C(O)CC(O)(CC(=O)NCCCCC(=O)N1CCN(c2cc3c(cc2F)c(=O)c(C(=O)O)cn3C2CC2)CC1)C(=O)O (racemic)	> 36 µg/mL

Tested on: Staphylococcus aureus
Assay: Antimicrobial activity against Staphylococcus aureus NCTC 13143 after 18 hrs by micro dilution method
Type: functional
Details: NCTC 13143, 18 h

SMILES	MIC
O=C(O)CC(O)(CC(=O)NCCCCC(=O)N1CCN(c2cc3c(cc2F)c(=O)c(C(=O)O)cn3C2CC2)CC1)C(=O)O (racemic)	> 36 µg/mL

Tested on: Staphylococcus aureus
Assay: Antimicrobial activity against Staphylococcus aureus BIG 52 after 18 hrs by micro dilution method
Type: functional
Details: BIG 52, 18 h

SMILES	MIC
O=C(O)CC(O)(CC(=O)NCCCCC(=O)N1CCN(c2cc3c(cc2F)c(=O)c(C(=O)O)cn3C2CC2)CC1)C(=O)O (racemic)	> 36 µg/mL

Tested on: Staphylococcus epidermidis
Assay: Antimicrobial activity against Staphylococcus epidermidis NCTC 11047 after 18 hrs by micro dilution method
Type: functional
Details: NCTC 11047, 18 h

SMILES	MIC
O=C(O)CC(O)(CC(=O)NCCCCC(=O)N1CCN(c2cc3c(cc2F)c(=O)c(C(=O)O)cn3C2CC2)CC1)C(=O)O (racemic)	> 36 µg/mL

Tested on: Staphylococcus epidermidis
Assay: Antimicrobial activity against Staphylococcus epidermidis NCTC 2749 after 18 hrs by micro dilution method
Type: functional
Details: NCTC 2749, 18 h

SMILES	MIC
O=C(O)CC(O)(CC(=O)NCCCCC(=O)N1CCN(c2cc3c(cc2F)c(=O)c(C(=O)O)cn3C2CC2)CC1)C(=O)O (racemic)	32 µg/mL (≈ 52.9 µM)

Tested on: Staphylococcus haemolyticus
Assay: Antimicrobial activity against Staphylococcus haemolyticus NCTC 11042 after 18 hrs by micro dilution method
Type: functional
Details: NCTC 11042, 18 h

SMILES	MIC
O=C(O)CC(O)(CC(=O)NCCCCC(=O)N1CCN(c2cc3c(cc2F)c(=O)c(C(=O)O)cn3C2CC2)CC1)C(=O)O (racemic)	> 36 µg/mL

Tested on: Escherichia coli
Assay: Antimicrobial activity against Escherichia coli NCTC 10418 after 18 hrs by micro dilution method
Type: functional
Details: NCTC 10418, 18 h

SMILES	MIC
O=C(O)CC(O)(CC(=O)NCCCCC(=O)N1CCN(c2cc3c(cc2F)c(=O)c(C(=O)O)cn3C2CC2)CC1)C(=O)O (racemic)	1 µg/mL (≈ 1.65 µM)

Tested on: Escherichia coli
Assay: Antimicrobial activity against Escherichia coli BIG 0046 after 18 hrs by micro dilution method
Type: functional
Details: BIG 0046, 18 h

SMILES	MIC
O=C(O)CC(O)(CC(=O)NCCCCC(=O)N1CCN(c2cc3c(cc2F)c(=O)c(C(=O)O)cn3C2CC2)CC1)C(=O)O (racemic)	> 36 µg/mL

Tested on: Pseudomonas aeruginosa
Assay: Antimicrobial activity against Pseudomonas aeruginosa environmental isolate BIG 39 after 18 hrs by micro dilution method
Type: functional
Details: BIG 39, 18 h

SMILES	MIC
O=C(O)CC(O)(CC(=O)NCCCCC(=O)N1CCN(c2cc3c(cc2F)c(=O)c(C(=O)O)cn3C2CC2)CC1)C(=O)O (racemic)	16 µg/mL (≈ 26.5 µM)

Tested on: Pseudomonas aeruginosa
Assay: Antimicrobial activity against Pseudomonas aeruginosa BIG 37 clinical isolate after 18 hrs by micro dilution method
Type: functional
Details: BIG 37, 18 h

SMILES	MIC
O=C(O)CC(O)(CC(=O)NCCCCC(=O)N1CCN(c2cc3c(cc2F)c(=O)c(C(=O)O)cn3C2CC2)CC1)C(=O)O (racemic)	> 36 µg/mL

Tested on: Pseudomonas aeruginosa
Assay: Antimicrobial activity against Pseudomonas aeruginosa NCTC 10662 after 18 hrs by micro dilution method
Type: functional
Details: NCTC 10662, 18 h

SMILES	MIC
O=C(O)CC(O)(CC(=O)NCCCCC(=O)N1CCN(c2cc3c(cc2F)c(=O)c(C(=O)O)cn3C2CC2)CC1)C(=O)O (racemic)	16 µg/mL (≈ 26.5 µM)

Tested on: Pseudomonas aeruginosa
Assay: Antimicrobial activity against Pseudomonas aeruginosa BIG 63 after 18 hrs by micro dilution method
Type: functional
Details: BIG 63, 18 h

SMILES	MIC
O=C(O)CC(O)(CC(=O)NCCCCC(=O)N1CCN(c2cc3c(cc2F)c(=O)c(C(=O)O)cn3C2CC2)CC1)C(=O)O (racemic)	16 µg/mL (≈ 26.5 µM)

Tested on: Serratia marcescens
Assay: Antimicrobial activity against Serratia marcescens BIG 11 NCTC 1377 after 18 hrs by micro dilution method
Type: functional
Details: BIG 11 NCTC 1377, 18 h

SMILES	MIC
O=C(O)CC(O)(CC(=O)NCCCCC(=O)N1CCN(c2cc3c(cc2F)c(=O)c(C(=O)O)cn3C2CC2)CC1)C(=O)O (racemic)	4 µg/mL (≈ 6.62 µM)

Tested on: Burkholderia cepacia
Assay: Antimicrobial activity against Burkholderia cepacia BIG 9 NCTC 10744 after 18 hrs by micro dilution method
Type: functional
Details: BIG 9 NCTC 10744, 18 h

SMILES	MIC
O=C(O)CC(O)(CC(=O)NCCCCC(=O)N1CCN(c2cc3c(cc2F)c(=O)c(C(=O)O)cn3C2CC2)CC1)C(=O)O (racemic)	32 µg/mL (≈ 52.9 µM)

Tested on: Burkholderia cepacia
Assay: Antimicrobial activity against Burkholderia cepacia BIG 117 after 18 hrs by micro dilution method
Type: functional
Details: BIG 117, 18 h

SMILES	MIC
O=C(O)CC(O)(CC(=O)NCCCCC(=O)N1CCN(c2cc3c(cc2F)c(=O)c(C(=O)O)cn3C2CC2)CC1)C(=O)O (racemic)	> 36 µg/mL

Tested on: Burkholderia cepacia
Assay: Antimicrobial activity against Burkholderia cepacia BIG 118 after 18 hrs by micro dilution method
Type: functional
Details: BIG 118, 18 h

SMILES	MIC
O=C(O)CC(O)(CC(=O)NCCCCC(=O)N1CCN(c2cc3c(cc2F)c(=O)c(C(=O)O)cn3C2CC2)CC1)C(=O)O (racemic)	> 36 µg/mL

Tested on: Burkholderia cepacia
Assay: Antimicrobial activity against Burkholderia cepacia BIG 119 after 18 hrs by micro dilution method
Type: functional
Details: BIG 119, 18 h

SMILES	MIC
O=C(O)CC(O)(CC(=O)NCCCCC(=O)N1CCN(c2cc3c(cc2F)c(=O)c(C(=O)O)cn3C2CC2)CC1)C(=O)O (racemic)	> 36 µg/mL

Tested on: Burkholderia cepacia
Assay: Antimicrobial activity against Burkholderia cepacia BIG 120 after 18 hrs by micro dilution method
Type: functional
Details: BIG 120, 18 h

SMILES	MIC
O=C(O)CC(O)(CC(=O)NCCCCC(=O)N1CCN(c2cc3c(cc2F)c(=O)c(C(=O)O)cn3C2CC2)CC1)C(=O)O (racemic)	> 36 µg/mL

Tested on: Burkholderia cepacia
Assay: Antimicrobial activity against Burkholderia cepacia BIG 121 after 18 hrs by micro dilution method
Type: functional
Details: BIG 121, 18 h

SMILES	MIC
O=C(O)CC(O)(CC(=O)NCCCCC(=O)N1CCN(c2cc3c(cc2F)c(=O)c(C(=O)O)cn3C2CC2)CC1)C(=O)O (racemic)	> 36 µg/mL

Tested on: Stenotrophomonas maltophilia
Assay: Antimicrobial activity against Stenotrophomonas maltophilia N1127 after 18 hrs by micro dilution method
Type: functional
Details: N1127, 18 h

SMILES	MIC
O=C(O)CC(O)(CC(=O)NCCCCC(=O)N1CCN(c2cc3c(cc2F)c(=O)c(C(=O)O)cn3C2CC2)CC1)C(=O)O (racemic)	> 36 µg/mL

Tested on: Stenotrophomonas maltophilia
Assay: Antimicrobial activity against Stenotrophomonas maltophilia N1124 after 18 hrs by micro dilution method
Type: functional
Details: N1124, 18 h

SMILES	MIC
O=C(O)CC(O)(CC(=O)NCCCCC(=O)N1CCN(c2cc3c(cc2F)c(=O)c(C(=O)O)cn3C2CC2)CC1)C(=O)O (racemic)	> 36 µg/mL

Tested on: Stenotrophomonas maltophilia
Assay: Antimicrobial activity against Stenotrophomonas maltophilia N1119 after 18 hrs by micro dilution method
Type: functional
Details: N1119, 18 h

SMILES	MIC
O=C(O)CC(O)(CC(=O)NCCCCC(=O)N1CCN(c2cc3c(cc2F)c(=O)c(C(=O)O)cn3C2CC2)CC1)C(=O)O (racemic)	> 36 µg/mL

Tested on: not listed separately
Assay: Inhibition of DNA gyrase (unknown origin) assessed as reduction in supercoiled form of DNA at 20 uM using ethidium bromide staining by gel electrophoresis
Details: not given

SMILES	inhibition
O=C(O)CC(O)(CC(=O)NCCCCC(=O)N1CCN(c2cc3c(cc2F)c(=O)c(C(=O)O)cn3C2CC2)CC1)C(=O)O (racemic)	Active
